{"source": "ChEMBL document CHEMBL3352451", "about": "“Cyclic side-chain-linked opioid analogs utilizing cis- and trans-4-aminocyclohexyl-D-alanine” (Bioorg Med Chem, 2014)", "key": {"[1]": {"molecular_target": "Delta-type opioid receptor (Rattus norvegicus, UniProt P33533)", "sequence (P33533 whole entry)": "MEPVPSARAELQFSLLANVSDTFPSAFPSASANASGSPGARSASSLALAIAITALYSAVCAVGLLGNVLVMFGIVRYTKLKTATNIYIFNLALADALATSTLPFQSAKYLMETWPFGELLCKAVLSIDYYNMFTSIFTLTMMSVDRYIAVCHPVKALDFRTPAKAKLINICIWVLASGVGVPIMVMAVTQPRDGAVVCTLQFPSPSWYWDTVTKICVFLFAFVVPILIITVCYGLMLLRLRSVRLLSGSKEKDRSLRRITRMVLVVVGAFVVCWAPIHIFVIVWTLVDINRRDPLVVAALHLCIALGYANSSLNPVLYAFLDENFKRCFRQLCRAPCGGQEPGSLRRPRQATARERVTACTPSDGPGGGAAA", "assay": "Displacement of [3H][Ile5,6]deltorphin-2 from DOR in Wistar rat brain membranes by liquid scintillation counting method", "assay_type": "cell membranes, Membrane"}, "[2]": {"molecular_target": "Mu-type opioid receptor (Rattus norvegicus, UniProt P33535)", "sequence (P33535 whole entry)": "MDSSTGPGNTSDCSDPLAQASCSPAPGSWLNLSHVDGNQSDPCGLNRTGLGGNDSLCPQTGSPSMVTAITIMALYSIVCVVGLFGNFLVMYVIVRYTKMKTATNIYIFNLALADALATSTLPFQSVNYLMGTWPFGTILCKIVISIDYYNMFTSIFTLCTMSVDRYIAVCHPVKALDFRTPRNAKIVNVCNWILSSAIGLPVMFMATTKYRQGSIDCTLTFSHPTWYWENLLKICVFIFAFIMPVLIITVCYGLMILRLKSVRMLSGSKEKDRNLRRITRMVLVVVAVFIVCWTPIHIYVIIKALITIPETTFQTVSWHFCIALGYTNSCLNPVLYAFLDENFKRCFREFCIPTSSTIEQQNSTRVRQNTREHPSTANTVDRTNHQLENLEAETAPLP", "assay": "Displacement of [3H]DAMGO from MOR in Wistar rat brain membranes by liquid scintillation counting method", "assay_type": "cell membranes, Membrane"}, "[3]": {"molecular_target": "Kappa-type opioid receptor (Cavia porcellus, UniProt P41144)", "sequence (P41144 whole entry)": "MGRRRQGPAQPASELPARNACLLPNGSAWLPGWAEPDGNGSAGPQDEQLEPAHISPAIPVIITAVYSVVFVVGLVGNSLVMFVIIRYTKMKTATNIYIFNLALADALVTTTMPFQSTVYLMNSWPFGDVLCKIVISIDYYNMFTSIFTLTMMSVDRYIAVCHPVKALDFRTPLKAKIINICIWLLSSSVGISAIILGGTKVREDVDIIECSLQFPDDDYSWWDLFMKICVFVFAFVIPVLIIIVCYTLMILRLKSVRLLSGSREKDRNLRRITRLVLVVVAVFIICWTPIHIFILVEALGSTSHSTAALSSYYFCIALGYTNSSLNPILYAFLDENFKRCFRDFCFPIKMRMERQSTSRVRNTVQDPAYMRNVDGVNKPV", "assay": "Displacement of [3H]nor-BNI from KOR in Dunkin Hartley guinea pig membranes by liquid scintillation counting method", "assay_type": "cell membranes"}}, "note": "Bridge positions count the residues as written; N and C are the ends. Square brackets hold non-standard residues; d marks the D form. Peptide text beside a SMILES is read from it."}
{"smiles": "NC(=O)[C@@H]1CC(=O)N[C@H]2CC[C@H](CC2)C[C@@H](NC(=O)[C@@H](N)Cc2ccc(O)cc2)C(=O)N[C@@H](Cc2ccccc2)C(=O)N[C@@H](Cc2ccccc2)C(=O)N1", "values": [{"measurement": "IC50", "setting": "[1]", "value": "> 1000", "unit": "nM"}, {"measurement": "IC50", "setting": "[2]", "value": 3.2, "unit": "nM"}]}
{"smiles": "NC(=O)[C@@H]1CC(=O)N[C@H]2CC[C@@H](CC2)C[C@@H](NC(=O)[C@@H](N)Cc2ccc(O)cc2)C(=O)N[C@@H](Cc2ccccc2)C(=O)N[C@@H](Cc2ccccc2)C(=O)N1", "values": [{"measurement": "IC50", "setting": "[1]", "value": 3.9, "unit": "nM"}, {"measurement": "IC50", "setting": "[2]", "value": 2.08, "unit": "nM"}]}
{"smiles": "Cc1cc(O)cc(C)c1C[C@H](N)C(=O)N[C@@H]1C[C@H]2CC[C@H](CC2)NC(=O)C[C@@H](C(N)=O)NC(=O)[C@H](Cc2ccccc2)NC(=O)[C@H](Cc2ccccc2)NC1=O", "values": [{"measurement": "IC50", "setting": "[3]", "value": "> 1000", "unit": "nM"}, {"measurement": "IC50", "setting": "[1]", "value": "> 1000", "unit": "nM"}, {"measurement": "IC50", "setting": "[2]", "value": 0.04, "unit": "nM"}]}
{"smiles": "Cc1cc(O)cc(C)c1C[C@H](N)C(=O)N[C@@H]1C[C@H]2CC[C@@H](CC2)NC(=O)C[C@@H](C(N)=O)NC(=O)[C@H](Cc2ccccc2)NC(=O)[C@H](Cc2ccccc2)NC1=O", "values": [{"measurement": "IC50", "setting": "[3]", "value": 25, "unit": "nM"}, {"measurement": "IC50", "setting": "[1]", "value": 0.38, "unit": "nM"}, {"measurement": "IC50", "setting": "[2]", "value": 0.022, "unit": "nM"}]}
{"smiles": "NC(=O)[C@@H]1CC(=O)NCCCC[C@@H](NC(=O)[C@@H](N)Cc2ccc(O)cc2)C(=O)N[C@@H](Cc2ccccc2)C(=O)N[C@@H](Cc2ccccc2)C(=O)N1", "note": "(H-Y[dK]FFD-NH2; lactam 2-5)", "values": [{"measurement": "IC50", "setting": "[3]", "value": 2.36, "unit": "nM"}]}
